# Measured values reported in patent US6514734B1, “Polybifunctional reagent having a polymeric backbone and latent reactive moieties and bioactive groups” (Surmodics, Inc., priority 1997, dated 2003).
# Where no end group is shown, it is not given here. {C12NH2} = aliphatic C12 spacer ending in a primary amine, used to couple the probe to the polymer
# Columns and labels:
# [1] = system: Complementary detection probe; assay: Hybridization of biotinylated detection probe to coated polypropylene microwells (SA-HRP, A655); type: binding; details: 50 fmole probe per well, n=3
# Description: (§1) The DNA-polymer was applied to microplate wells (polypropylene plates from Corning Costar Corporation, Cambridge, Mass.) at 10 pmole (in 0.1 ml solution) per well and incubated for 10-30 minutes. The plates containing DNA polymer solutions were illuminated for 1.5 minutes with a Dymax lamp as described herein except that a filter was used that removes light of wavelengths shorter than 300 nm. A control consisted of oligoDNA capture probe (10 pmole in 0.1 ml 50 mM phosphate buffer, pH 8.5, 1 mM EDTA) that was added to wells, allowed to adsorb for 2.5 hr., and not illuminated. The plates were washed with phosphate buffered saline containing 0.05% Tween 20 in PBS to remove unbound DNA-polymer or control oligoDNA capture probe. […]
# (§2) The binding of each detection probe was assayed by subsequently adding a conjugate of streptavidin and horseradish peroxidase (SA-HRP, available from Pierce, Rockford, Ill.) and measuring the activity of the bound HRP. […] The plates were then washed with 0.05% Tween 20 in PBS, followed by addition of peroxidase substrate (TMB Microwell Peroxidase substrate system from Kirkegarrd and Perry Laboratories, Gaithersburg, Md.) and measurement of absorbance at 655 nm on a microplate reader (model 3550, Bio-Rad Labs, Cambridge, Mass.). Since the polypropylene plates were opaque, the reacted substrate solutions were transferred to polystyrene plates to read the absorbance.
# [2] = system: Noncomplementary detection probe; assay: as above; type: binding; details: 50 fmole probe per well, n=3
# Description: as §1, §2
# [3] = system: Escherichia coli (ATCC No. 25922); type: cell-based; details: in solution
# Description: (§3) Magainin is a cationic peptide antibiotic that was originally isolated from the skin of Xenopus laevis. It is active against a broad spectrum of pathogens and acts at the surface of the pathogens. The activity of the magainin polymer was evaluated by a standard solution assay, which determined the minimum inhibitory concentration (MIC) of magainin polymer that was required to prevent the growth of bacteria.
# [4] = system: Staphylococcus epidermidis (ATCC No. 12228); type: cell-based; details: in solution
# Description: as §3
substance,measurement,setting,value
"5′-GTCTGAGTCGGAGCCAGGGCGGCCGCCAACAGCAGGAGCA (DNA GTCTGAGTCGGAGCCAGGGCGGCCGCCAACAGCAGGAGCA; DNA, 5' {C12NH2}, backbone not given here; coupled via 5' amine to photoreactive NOS polymer) [oligo DNA capture probe]","Hybridization Signals (A655), Complementary detection probe",[1],0.037 ± 0.005
same,"Hybridization Signals (A655), Noncomplementary detection probe",[2],0.033 ± 0.001
magainin polymer: photoreactive polyacrylamide containing magainin ligand (SEQ ID NO:14) (GIGKFLHSAKKFGKAFVGEIMNSC; not fully specified (residue 24); printed as Gly Ile Gly Lys Phe Leu His Ser Ala Lys Lys Phe Gly Lys Ala Phe Val Gly Glu Ile Met Asn Ser Cys; also: in photoreactive polyacrylamide),MIC,[3],50 µg/mL
same,MIC,[4],50 µg/mL
